According to article PMC7481290, “Halogenation as a tool to tune antimicrobial activity of peptoids” (Scientific Reports, 2020):
Converted amounts (≈) assume the structure as drawn. Non-standard residues stand in square brackets, D forms with d. Residues, ends and D or L forms follow the SMILES beside them. Gly(Nα-4-Cl-benzyl) = O=C(O)CNCc1ccc(Cl)cc1; N(4-Br-benzyl)Gly = O=C(O)CNCc1ccc(Br)cc1; Nspe(4-Br) = C[C@H](NCC(=O)O)c1ccc(Br)cc1; N(4-F-Bzl)Gly = O=C(O)CNCc1ccc(F)cc1; NBzl(4-I)Gly = O=C(O)CNCc1ccc(I)cc1; Nspe = C[C@H](NCC(=O)O)c1ccccc1; Nphe = O=C(O)CNCc1ccccc1; Nlys = NCCCCNCC(=O)O

What was measured:
[1] = system: Methicillin-resistant S. epidermidis ATCC 51625; type: cell-based, Staphylococcus epidermidis; conditions: ATCC 51625, 18 h
Protocol: (§1) Bacterial growth inhibition was determined by using broth microdilution according to the Clinical Laboratory Standards Institute[43]. The antibacterial activity of peptoids was tested against S. aureus ATCC 25923, ATCC29213, and methicillin resistant S. aureus USA 300, methicillin resistant S. epidermidis ATCC 51625, a biofilm producing methicillin resistant S. epidermidis ET-024[44], P. aeruginosa Pa01 (H103), and E. coli ATCC 25922. Bacteria, grown on agar plates for 18 h at 37 °C, were diluted to ∼1 × 10^8 CFU/mL in Mueller‐Hinton Broth II (MHB II). Twofold serial dilutions of peptoids in MHB II were inoculated with bacteria to achieve a final concentration of 5 × 10^5 CFU/mL in polypropylene 96 U‐well microtiter plates (Corning 3,897; ThermoFisher Scientific, Roskilde), followed by incubation at 37 °C in ambient air for 18 h. The MIC values were determined as the lowest concentration showing no visible bacterial growth. Experiments were performed twice (in technical triplicates) on 2 different days.

[2] = system: Methicillin-resistant S. epidermidis ET-024; type: cell-based, Staphylococcus epidermidis; conditions: Methicillin-resistant ET-024, 18 h
Protocol: as §1

[3] = system: Methicillin-resistant S. aureus USA 300; type: cell-based, Staphylococcus aureus; conditions: USA 300, 18 h
Protocol: as §1

S. aureus ATCC 29213 = type: cell-based, Staphylococcus aureus; conditions: ATCC 29213, 18 h
Protocol: as §1

S. aureus ATCC 25923 = type: cell-based, Staphylococcus aureus; conditions: ATCC 25923, 18 h
Protocol: as §1

E. coli ATCC 25922 = type: cell-based, Escherichia coli; conditions: ATCC 25922, 18 h
Protocol: as §1

[4] = system: P. aeruginosa PA01 (H103); type: cell-based, Pseudomonas aeruginosa; conditions: H103, 18 h
Protocol: as §1

| SMILES | Minimal inhibitory concentration MRSE^e [1] [mg/L] | Minimal inhibitory concentration MRSE^d [2] [mg/L] | Minimal inhibitory concentration MRSA^c [3] [mg/L] | Minimal inhibitory concentration SA^b (S. aureus ATCC 29213) [mg/L] | Minimal inhibitory concentration SA^a (S. aureus ATCC 25923) [mg/L] | Minimal inhibitory concentration EC^f (E. coli ATCC 25922) [mg/L] | Minimal inhibitory concentration PA^g [4] [mg/L] | MIC MRSE^d [1] [mg/L] | MIC MRSE^c [2] [mg/L] | MIC MRSA^b [3] [mg/L] | MIC SA^a (S. aureus ATCC 25923) [mg/L] | MIC EC^e (E. coli ATCC 25922) | MIC PA^f [4] [mg/L] |
| --- | --- | --- | --- | --- | --- | --- | --- | --- | --- | --- | --- | --- | --- |
| NCCCCNCC(=O)N(CC(=O)N(CCCCN)CC(=O)N(CC(=O)N(CCCCN)CC(=O)N(CC(N)=O)Cc1ccc(F)cc1)Cc1ccccc1)Cc1ccc(F)cc1 [Compound 6] (H-[Nlys][N(4-F-Bzl)Gly][Nlys][Nphe][Nlys][N(4-F-Bzl)Gly]-NH2) | 512 (≈ 582 µM) | 256 (≈ 291 µM) | > 512 | > 512 | > 512 | > 512 | > 512 |  |  |  |  |  |  |
| NCCCCNCC(=O)N(CC(=O)N(CCCCN)CC(=O)N(CC(=O)N(CCCCN)CC(=O)N(CC(=O)N(CCCCN)CC(=O)N(CC(=O)N(CCCCN)CC(=O)N(CC(=O)N(CCCCN)CC(=O)N(CC(N)=O)Cc1ccc(Br)cc1)Cc1ccc(Br)cc1)Cc1ccc(Br)cc1)Cc1ccc(Br)cc1)Cc1ccc(Br)cc1)Cc1ccc(Br)cc1 [Compound 31] (H-[Nlys][N(4-Br-benzyl)Gly][Nlys][N(4-Br-benzyl)Gly][Nlys][N(4-Br-benzyl)Gly][Nlys][N(4-Br-benzyl)Gly][Nlys][N(4-Br-benzyl)Gly][Nlys][N(4-Br-benzyl)Gly]-NH2) | 4 (≈ 1.87 µM) | 4 (≈ 1.87 µM) | 2 (≈ 0.933 µM) | 8 (≈ 3.73 µM) | 4 (≈ 1.87 µM) | 64 (≈ 29.9 µM) | 256 (≈ 119 µM) |  |  |  |  |  |  |
| NCCCCNCC(=O)N(CC(=O)N(CCCCN)CC(=O)N(CC(=O)N(CCCCN)CC(=O)N(CC(N)=O)Cc1ccc(I)cc1)Cc1ccccc1)Cc1ccc(I)cc1 [Compound 9] (H-[Nlys][NBzl(4-I)Gly][Nlys][Nphe][Nlys][NBzl(4-I)Gly]-NH2) | 4 (≈ 3.65 µM) | 16 (≈ 14.6 µM) | 16 (≈ 14.6 µM) | 16 (≈ 14.6 µM) | 64 (≈ 58.5 µM) | 256 (≈ 234 µM) | 256 (≈ 234 µM) |  |  |  |  |  |  |
| NCCCCNCC(=O)N(CC(=O)N(CCCCN)CC(=O)N(CC(=O)N(CCCCN)CC(=O)N(CC(N)=O)Cc1ccc(Br)cc1)Cc1ccc(Br)cc1)Cc1ccc(Br)cc1 [Compound 4] (H-[Nlys][N(4-Br-benzyl)Gly][Nlys][N(4-Br-benzyl)Gly][Nlys][N(4-Br-benzyl)Gly]-NH2) | 4 (≈ 3.7 µM) | 4 (≈ 3.7 µM) | 16 (≈ 14.8 µM) | 16 (≈ 14.8 µM) | 16 (≈ 14.8 µM) | 64 (≈ 59.3 µM) | > 512 |  |  |  |  |  |  |
| NCCCCNCC(=O)N(CC(=O)N(CCCCN)CC(=O)N(CC(=O)N(CCCCN)CC(=O)N(CC(=O)N(CCCCN)CC(=O)N(CC(N)=O)Cc1ccc(F)cc1)Cc1ccc(F)cc1)Cc1ccc(F)cc1)Cc1ccc(F)cc1 [Compound 11] (H-[Nlys][N(4-F-Bzl)Gly][Nlys][N(4-F-Bzl)Gly][Nlys][N(4-F-Bzl)Gly][Nlys][N(4-F-Bzl)Gly]-NH2) | 32 (≈ 26.9 µM) | 64 (≈ 53.8 µM) | 256 (≈ 215 µM) | 256 (≈ 215 µM) | 256 (≈ 215 µM) | 128 (≈ 108 µM) | > 512 |  |  |  |  |  |  |
| NCCCCNCC(=O)N(CC(=O)N(CCCCN)CC(=O)N(CC(=O)N(CCCCN)CC(=O)N(CC(N)=O)Cc1ccc(Br)cc1)Cc1ccccc1)Cc1ccc(Br)cc1 [Compound 8] (H-[Nlys][N(4-Br-benzyl)Gly][Nlys][Nphe][Nlys][N(4-Br-benzyl)Gly]-NH2) | 16 (≈ 16 µM) | 32 (≈ 32 µM) | 64 (≈ 63.9 µM) | 64 (≈ 63.9 µM) | 128 (≈ 128 µM) | 256 (≈ 256 µM) | 256 (≈ 256 µM) |  |  |  |  |  |  |
| NCCCCNCC(=O)N(CC(=O)N(CCCCN)CC(=O)N(CC(=O)N(CCCCN)CC(=O)N(CC(=O)N(CCCCN)CC(=O)N(CC(=O)N(CCCCN)CC(=O)N(CC(=O)N(CCCCN)CC(=O)N(CC(N)=O)Cc1ccc(F)cc1)Cc1ccc(F)cc1)Cc1ccc(F)cc1)Cc1ccc(F)cc1)Cc1ccc(F)cc1)Cc1ccc(F)cc1 [Compound 29] (H-[Nlys][N(4-F-Bzl)Gly][Nlys][N(4-F-Bzl)Gly][Nlys][N(4-F-Bzl)Gly][Nlys][N(4-F-Bzl)Gly][Nlys][N(4-F-Bzl)Gly][Nlys][N(4-F-Bzl)Gly]-NH2) | 4 (≈ 2.25 µM) | 4 to 8 | 16 (≈ 9 µM) | 32 (≈ 18 µM) | 32 (≈ 18 µM) | 256 (≈ 144 µM) | 64 (≈ 36 µM) |  |  |  |  |  |  |
| NCCCCNCC(=O)N(CC(=O)N(CCCCN)CC(=O)N(CC(=O)N(CCCCN)CC(=O)N(CC(N)=O)Cc1ccc(Cl)cc1)Cc1ccccc1)Cc1ccc(Cl)cc1 [Compound 7] (H-[Nlys][Gly(Nα-4-Cl-benzyl)][Nlys][Nphe][Nlys][Gly(Nα-4-Cl-benzyl)]-NH2) | 32 (≈ 35.1 µM) | 64 (≈ 70.2 µM) | 128 (≈ 140 µM) | 256 (≈ 281 µM) | 256 (≈ 281 µM) | 256 (≈ 281 µM) | 512 (≈ 561 µM) |  |  |  |  |  |  |
| NCCCCNCC(=O)N(CC(=O)N(CCCCN)CC(=O)N(CC(=O)N(CCCCN)CC(=O)N(CC(=O)N(CCCCN)CC(=O)N(CC(=O)N(CCCCN)CC(=O)N(CC(=O)N(CCCCN)CC(=O)N(CC(N)=O)Cc1ccc(Br)cc1)Cc1ccccc1)Cc1ccc(Br)cc1)Cc1ccccc1)Cc1ccc(Br)cc1)Cc1ccccc1 [Compound 35] (H-[Nlys][Nphe][Nlys][N(4-Br-benzyl)Gly][Nlys][Nphe][Nlys][N(4-Br-benzyl)Gly][Nlys][Nphe][Nlys][N(4-Br-benzyl)Gly]-NH2) | 1 (≈ 0.525 µM) | 8 (≈ 4.2 µM) | 8 (≈ 4.2 µM) | 8 (≈ 4.2 µM) | 8 (≈ 4.2 µM) | 256 (≈ 134 µM) | > 512 |  |  |  |  |  |  |
| NCCCCNCC(=O)N(CC(=O)N(CCCCN)CC(=O)N(CC(=O)N(CCCCN)CC(=O)N(CC(=O)N(CCCCN)CC(=O)N(CC(=O)N(CCCCN)CC(=O)N(CC(=O)N(CCCCN)CC(=O)N(CC(N)=O)Cc1ccc(I)cc1)Cc1ccccc1)Cc1ccc(I)cc1)Cc1ccccc1)Cc1ccc(I)cc1)Cc1ccccc1 [Compound 36] (H-[Nlys][Nphe][Nlys][NBzl(4-I)Gly][Nlys][Nphe][Nlys][NBzl(4-I)Gly][Nlys][Nphe][Nlys][NBzl(4-I)Gly]-NH2) | 1 (≈ 0.489 µM) | 4 (≈ 1.95 µM) | 4 (≈ 1.95 µM) | 16 (≈ 7.82 µM) | 8 (≈ 3.91 µM) | 256 (≈ 125 µM) | > 512 |  |  |  |  |  |  |
| NCCCCNCC(=O)N(CC(=O)N(CCCCN)CC(=O)N(CC(=O)N(CCCCN)CC(=O)N(CC(=O)N(CCCCN)CC(=O)N(CC(N)=O)Cc1ccc(Br)cc1)Cc1ccccc1)Cc1ccc(Br)cc1)Cc1ccccc1 [Compound 17] (H-[Nlys][Nphe][Nlys][N(4-Br-benzyl)Gly][Nlys][Nphe][Nlys][N(4-Br-benzyl)Gly]-NH2) | 4 (≈ 3.13 µM) | 4 (≈ 3.13 µM) | 32 (≈ 25.1 µM) | 32 (≈ 25.1 µM) | 16 (≈ 12.5 µM) | 256 (≈ 201 µM) | 512 (≈ 401 µM) |  |  |  |  |  |  |
| C[C@@H](c1ccc(Br)cc1)N(CC(N)=O)C(=O)CN(C(=O)CN(CCCCN)C(=O)CN(C(=O)CN(C(=O)CNCCCCN)[C@@H](C)c1ccccc1)[C@@H](C)c1ccccc1)[C@@H](C)c1ccccc1 [Compound 49] (H-[Nlys][Nspe][Nspe][Nlys][Nspe][Nspe(4-Br)]-NH2) |  |  |  |  |  |  |  | 8 (≈ 8.02 µM) | 16 (≈ 16 µM) | 32 (≈ 32.1 µM) | 64 (≈ 64.2 µM) | > 64 µg/mL | 64 (≈ 64.2 µM) |
| C[C@@H](c1ccccc1)N(CC(N)=O)C(=O)CN(C(=O)CN(CCCCN)C(=O)CN(C(=O)CN(C(=O)CNCCCCN)[C@@H](C)c1ccccc1)[C@@H](C)c1ccccc1)[C@@H](C)c1ccccc1 [Pep1-6mer] (H-[Nlys][Nspe][Nspe][Nlys][Nspe][Nspe]-NH2) |  |  |  |  |  |  |  | 64 (≈ 69.7 µM) | 64 (≈ 69.7 µM) | 256 (≈ 279 µM) | 256 (≈ 279 µM) | 1,024 μg/mL | 256 (≈ 279 µM) |
